The numbers were not newly measured in PubChem BioAssay AID1259409 (Chemical Carcinogenesis Research Information System (CCRIS), 2018), which cites them from elsewhere.

Where “and” joins values, the source holds several entries; their conditions need not be identical. Equal values may be shown once.

For the data set, the system named is rodent chemically induced tumor inhibition, incidence and multiplicity. The data set is described as follows: CCRIS tumor inhibitor studies. The conditions noted are these: Species: RAT; for tumour outcome (control, treated, inhibition, significance): Dose [Inhibitor]: 0, Route [Inhibitor]: ORAL; for outcome: Carcinogen: AZOXYMETHANE [25843-45-2], 1 WK AFTER LAST AZOXYMETHANE INJECTION (STUDY DURATION: 36 WK), Route [Inhibitor]: DIET, Dose [Carcinogen]: 20 MG/KG 1X A WK FOR 2 WK.

As to `Nc1nc(N)nc(-c2cc(Cl)ccc2Cl)n1`, the “tumour outcome (control, treated, inhibition, significance)” value was 14/14 (100%), 0/15 (0%), 100%, not calculated (Carcinogen: DIETHYLNITROSAMINE, 55-18-5, 125 PPM IN DIET BEGINNING 1 WK POST CARCINOGEN DOSE (STUDY DURATION: 36 WK), Strain/Sex: F344/MALE, Target Tissue: Type of Lesion: LIVER: TUMOR, Dose [Carcinogen]: 200 MG/KG BW ONCE, Promoter: PHENOBARBITAL, 50-06-6); 6/12 (50%), 4/16 (25%), 50%, not significant (Carcinogen: N-METHYL-N'-NITRO-N-NITROSOGUANIDINE, 70-25-7, 100 PPM IN DIET FOR FIRST 25 WK (STUDY DURATION: 55 WK), Strain/Sex: WISTAR/MALE, Target Tissue: Type of Lesion: DUODENUM: ADENOMA, ADENOCARCINOMA OR SARCOMA, Dose [Carcinogen]: 100 MG/L IN DRINKING WATER FOR FIRST 25 WK, Promoter: GLYOXAL, 107-22-2); 3/12 (25%), 1/16 (6%), 76%, not significant (Carcinogen: N-METHYL-N'-NITRO-N-NITROSOGUANIDINE, 70-25-7, 100 PPM IN DIET FOR FIRST 25 WK (STUDY DURATION: 55 WK), Strain/Sex: WISTAR/MALE, Target Tissue: Type of Lesion: FORESTOMACH: PAPILLOMA, Dose [Carcinogen]: 100 MG/L IN DRINKING WATER FOR FIRST 25 WK, Promoter: GLYOXAL, 107-22-2); 11/12 (92%), 9/16 (56%), 39%, p<0.05 (Carcinogen: N-METHYL-N'-NITRO-N-NITROSOGUANIDINE, 70-25-7, 100 PPM IN DIET FOR FIRST 25 WK (STUDY DURATION: 55 WK), Strain/Sex: WISTAR/MALE, Target Tissue: Type of Lesion: GASTROINTESTINAL TRACT (UPPER): BENIGN OR MALIGNANT TUMOR, Dose [Carcinogen]: 100 MG/L IN DRINKING WATER FOR FIRST 25 WK, Promoter: GLYOXAL, 107-22-2); 9/12 (75%), 6/16 (38%), 49%, p<0.05 (Carcinogen: N-METHYL-N'-NITRO-N-NITROSOGUANIDINE, 70-25-7, 100 PPM IN DIET FOR FIRST 25 WK (STUDY DURATION: 55 WK), Strain/Sex: WISTAR/MALE, Target Tissue: Type of Lesion: GLANDULAR STOMACH: ADENOMA, ADENOCARCINOMA OR SARCOMA, Dose [Carcinogen]: 100 MG/L IN DRINKING WATER FOR FIRST 25 WK, Promoter: GLYOXAL, 107-22-2); 1/12 (8%), 0/12 (0%), 100%, not significant (Carcinogen: N-METHYL-N'-NITRO-N-NITROSOUGUANIDINE, 70-25-7, 25 PPM IN DIET FOR THE DURATION OF THE STUDY (STUDY DURATION: 55 WK), Strain/Sex: WISTAR/MALE, Target Tissue: Type of Lesion: BILE DUCT: CHOLANGIOMA, Dose [Carcinogen]: 100 MG/L IN DRINKING WATER FOR FIRST 25 WK, Promoter: GLYOXAL, 107-22-2). Besides, the “tumour outcome (control, treated, inhibition, significance)” value (Carcinogen: N-METHYL-N'-NITRO-N-NITROSOUGUANIDINE, 70-25-7, 25 PPM IN DIET FOR THE DURATION OF THE STUDY (STUDY DURATION: 55 WK), Strain/Sex: WISTAR/MALE, Target Tissue: Type of Lesion: FORESTOMACH: PAPILLOMA, Dose [Carcinogen]: 100 MG/L IN DRINKING WATER FOR FIRST 25 WK, Promoter: GLYOXAL, 107-22-2) is 3/12 (25%), 1/12 (8%), 68%, not significant; the “tumour outcome (control, treated, inhibition, significance)” value (Carcinogen: N-METHYL-N'-NITRO-N-NITROSOUGUANIDINE, 70-25-7, 25 PPM IN DIET FOR THE DURATION OF THE STUDY (STUDY DURATION: 55 WK), Strain/Sex: WISTAR/MALE, Target Tissue: Type of Lesion: GASTROINTESTINAL TRACT (UPPER): BENIGN OR MALIGNANT TUMOR, Dose [Carcinogen]: 100 MG/L IN DRINKING WATER FOR FIRST 25 WK, Promoter: GLYOXAL, 107-22-2) was 11/12 (92%), 7/12 (58%), 37%, not significant; the “tumour outcome (control, treated, inhibition, significance)” value (Carcinogen: N-METHYL-N'-NITRO-N-NITROSOUGUANIDINE, 70-25-7, 25 PPM IN DIET FOR THE DURATION OF THE STUDY (STUDY DURATION: 55 WK), Strain/Sex: WISTAR/MALE, Target Tissue: Type of Lesion: GLANDULAR STOMACH: ADENOMA, ADENOCARCINOMA OR SARCOMA, Dose [Carcinogen]: 100 MG/L IN DRINKING WATER FOR FIRST 25 WK, Promoter: GLYOXAL, 107-22-2) is 9/12 (75%), 5/12 (42%), 44%, not significant; the “tumour outcome (control, treated, inhibition, significance)” value (Carcinogen: N-METHYL-N'-NITRO-N-NITROSOUGUANIDINE, 70-25-7, 100 PPM IN DIET FOR FIRST 25 WK (STUDY DURATION: 55 WK), Strain/Sex: WISTAR/MALE, Target Tissue: Type of Lesion: BILE DUCT: CHOLANGIOMA, Dose [Carcinogen]: 100 MG/L IN DRINKING WATER FOR FIRST 25 WK, Promoter: GLYOXAL, 107-22-2) is 1/12 (8%), 0/12 (0%), 100%, not significant and 1/12 (8%), 0/15 (0%), 100%, not significant; the “tumour outcome (control, treated, inhibition, significance)” value (Carcinogen: N-METHYL-N'-NITRO-N-NITROSOUGUANIDINE, 70-25-7, 100 PPM IN DIET FOR FIRST 25 WK (STUDY DURATION: 55 WK), Strain/Sex: WISTAR/MALE, Target Tissue: Type of Lesion: DUODENUM: ADENOMA, ADENOCARCINOMA OR SARCOMA, Dose [Carcinogen]: 100 MG/L IN DRINKING WATER FOR FIRST 25 WK, Promoter: GLYOXAL, 107-22-2) is 6/12 (50%), 4/12 (33%), 34%, not significant and 6/12 (50%), 4/15 (20%), 60%, not significant; the “tumour outcome (control, treated, inhibition, significance)” value (Carcinogen: N-METHYL-N'-NITRO-N-NITROSOUGUANIDINE, 70-25-7, 100 PPM IN DIET FOR FIRST 25 WK (STUDY DURATION: 55 WK), Strain/Sex: WISTAR/MALE, Target Tissue: Type of Lesion: FORESTOMACH: PAPILLOMA, Dose [Carcinogen]: 100 MG/L IN DRINKING WATER FOR FIRST 25 WK, Promoter: GLYOXAL, 107-22-2) is 3/12 (25%), 3/12 (25%), 0%, not significant and 3/12 (25%), 1/15 (7%), 72%, not significant. Also, the “tumour outcome (control, treated, inhibition, significance)” value by setting is: (Carcinogen: N-METHYL-N'-NITRO-N-NITROSOUGUANIDINE, 70-25-7, 100 PPM IN DIET FOR FIRST 25 WK (STUDY DURATION: 55 WK), Strain/Sex: WISTAR/MALE, Target Tissue: Type of Lesion: GASTROINTESTINAL TRACT (UPPER): BENIGN OR MALIGNANT TUMOR, Dose [Carcinogen]: 100 MG/L IN DRINKING WATER FOR FIRST 25 WK, Promoter: GLYOXAL, 107-22-2) 11/12 (92%), 5/12 (42%), 54%, p<0.02 and 11/12 (92%), 6/15 (40%), 57%, p<0.01; (Carcinogen: N-METHYL-N'-NITRO-N-NITROSOUGUANIDINE, 70-25-7, 100 PPM IN DIET FOR FIRST 25 WK (STUDY DURATION: 55 WK), Strain/Sex: WISTAR/MALE, Target Tissue: Type of Lesion: GLANDULAR STOMACH: ADENOMA, ADENOCARCINOMA OR SARCOMA, Dose [Carcinogen]: 100 MG/L IN DRINKING WATER FOR FIRST 25 WK, Promoter: GLYOXAL, 107-22-2) 9/12 (75%), 3/12 (25%), 67%, p<0.02 and 9/12 (75%), 5/15 (33%), 56%, p<0.02.

Consider `COc1ccc(-c2cc(=O)c3c(OC)c(OC)c(OC)c(OC)c3o2)cc1OC`, for which the outcome runs as follows: (Dose [Inhibitor]: 0.01% IN DIET FOR 34 WK, Strain/Sex: F344/MALE, Target Tissue: Type of Lesion: LARGE INTESTINE: ADENOCARCINOMA) 67, 55, 18%, not significant; (Dose [Inhibitor]: 0.01% IN DIET FOR 34 WK, Strain/Sex: F344/MALE, Target Tissue: Type of Lesion: LARGE INTESTINE: ADENOMA) 33, 45, -36%; (Dose [Inhibitor]: 0.05% IN DIET FOR 34 WK, Strain/Sex: F344/MALE, Target Tissue: Type of Lesion: LARGE INTESTINE: ADENOCARCINOMA) 67, 35, 48%, p<0.05; (Dose [Inhibitor]: 0.05% IN DIET FOR 34 WK, Strain/Sex: F344/MALE, Target Tissue: Type of Lesion: LARGE INTESTINE: ADENOMA) 33, 50, -52%.
